Test results published in US20160067211A1, “PHARMACEUTICAL COMPOSITION” (Eberhard Karls Universitaet Tuebingen Medizinische Fakultaet, priority 2013, published 2016).

How the values were obtained:
BLM melanoma cells [1] = experiment: PI/Annexin V staining FACS, BLM; format: cell-based, human; settings: 10 μM, 6 hours treatment
Method: (§1) (A) Cell cycle FACS analyses of PI stained BLM and SK-MEL-28 melanoma cells. 100 μM of 8-PN-induced a G2 arrest in both cells. (B) FACS analyses of BLM and SK-MEL-28 melanoma cells treated with 100 μM 6-PN or 8-PN and stained for annexin V/PI; staurosporin was used as control for apoptosis induction and DMSO as vehicle control. […] (C) BLM and SK-MEL-28 melanoma cells were treated with 100 μM of PNs; TSA, SAHA and EMSO were used as controls.
(§2) To further analyze the possibility of apoptosis induction, an extensive apoptosis assay was performed on SK-MEL-28 melanoma cells 4 hours after treatment with 100 μM 6-PN or 8-PN (FIG. 9). […] This was verified by FACS cell cycle analyses to screen for a possible increase of the sub-G1 fraction of cells (apoptotic cells) or for the induction of a G2 arrest (inhibition of proliferation). […] To further differentiate between the induction of apoptosis and/or necrosis an PI/Annexin V staining of SK-MEL-28 and BLM cells was performed 4 hours and 24 hours after the treatment with 6-PN or 8-PN; 10 μM staurosporin (6 hours treatment) was used as positive control for the induction of apoptosis; DMSO treatment was used as vehicle control. The cells were then analyzed by FACS.

SK-MEL-28 melanoma cells [2] = experiment: PI/Annexin V staining FACS, SK-MEL-28; format: cell-based, human; settings: SK-MEL-28, 10 μM, 6 hours treatment
Method: as §1, §2

[3] = tested on: primary human fibroblasts (FF868); experiment: MUH proliferation assay, fibroblasts; format: cell-based; settings: 6-PN, 8-PN 0.1 μM to 100 μM; TSA, SAHA 100 μM
Method: (§3) FIG. 5: real time cell monitoring of BLM and SK-MEL-28 melanoma cells treated with 6-PN and 8-PN. (A) BML and SK-MEL-28 cells were treated 24 hours after seeding with different concentrations of 6-PN and 8-PN (20 μM, 50 μM and 100 μM) over a 104 hour time period. The cellular impedance was measured over the entire observation time using the xCELLigence™ SP system and is depicted by the cell index (CI). All CI-values were normalized shortly before the treatment started. […] As a positive control, Triton X-100 0.1% was used to induce cell death. Shown are the mean±SD of three independent experiments, each performed in triplicates (B, C). […] Shown are the mean±SD; the experiments were performed in quadruplicates. (D) The MUH proliferation assay was repeated unter the same treatment conditions on primary human fibroblasts (FF868) and melanocytes (HEM1).
(§4) The cells were seeded in triplicates in 96-well plates at a density of 2,500 cells per well in 50 μl medium (5×10^4 cells per milliliter). After 24 hours, the medium was replaced by medium containing 6-PN, 8-PN (dissolved in DMSO), TSA (dissolved in EtOH) or SAHA (dissolved in DMSO) at the concentrations to be tested with or without the addition of the necrosis inhibitor IM-54 at 5 μM (Calbiochem, Darmstadt, Germany). Cells treated with culture medium without or with DMSO served as controls. The assay was started following an incubation of 24 hours. […] Plates were incubated at 37° C. for 1 hour and measured in a Fluoroskan II (Lab Systems, Helsinki, Finland) with a […]. The intensity of fluorescence indicates the number of viable cells in the wells.
(§5) Next it was asked whether the PNs also influence the proliferation of benign cells. To this end, human fibroblasts (FF) and foreskin melanocytes (HEM1) were treated with the same concentrations of 6-PN and 8-PN, and proliferation was assessed using the proliferation assay as described above.

[4] = tested on: cleaved caspase-3 in SK-MEL-28 melanoma cells; experiment: Western blot for cleaved caspase-3; format: cell-based, human; settings: SK-MEL-28, 100 μM
Method: Western blot analysis of SK-MEL-28 melanoma cells treated with 100 μM of 6-PN, 8-PN, SAHA or TSA. EtOH and DMSO were applied as controls.
The following antibodies were used: Anti-Vinculin and Anti-Actin (1:5000, Sigma-Aldrich), Anti-Acetyl-Histon H3 (1:5000, Millipore, Billerica, USA), Anti-Caspase-3 (1:1000), Anti-AKT, Anti-pAKT, Anti-ERK, Anti-pERK, […], Anti-p70S6 Kinase, and Anti-pS6 protein (1:1000), all from Cell Signaling, Frankfurt, Germany), Anti-LC3 (1:5000, Sigma-Aldrich).
To further analyze the type of cell death induced by 6-PN and 8-PN, western blot analyses of SK-MEL-28 melanoma cells were performed 1, 2, 4, 12 and 24 hours after the treatment with 100 μM 6-PN and 8-PN. […] Upon PN treatment an inconsistent expression of oncogenic AKT and phospho-AKT (pAKT) was detected. […] Thus, there was an obvious discrepancy between the expression of pAKT and pS6P. Therefore it was first also looked for the expression of P70S6 kinase and its phosphorylated form. […] Therefore it was next asked whether the S6P could be phosphorylated by a different mechanism. In this respect, activated ERK can phosphorylate the p90 ribosomal S6 kinase (pP90). pP90 also phosphorylates the S6P (in addition to the P70S6 kinase). Since the pP70S6 kinase was absent in the used cells (SK-MEL-28 and BLM), it was hypothesized that the phosphorylation of the S6P was conducted via the pERK/pP90 pathway, independent from the P70S6 signalling. This hypothesis was supported by the parallel down-regulation of the bands for pP90 (Thr359/Ser363) and pS6P 12 hours after the treatment with 6-PN, and the reappearance of both bands after 24 hours (FIG. 8). […] The western blot experiments were repeated with BLM cells under the same treatment conditions and yielded similar results (not shown).

[5] = tested on: foreskin melanocytes (HEM1); experiment: MUH proliferation assay, melanocytes; format: cell-based; settings: 6-PN, 8-PN at higher concentrations (0.1 μM to 100 μM tested); TSA, SAHA 100 μM
Method: as §3, §4, §5

BLM melanoma cells [6] = experiment: MUH proliferation assay, BLM; format: cell-based, human; settings: addition of 5 μM IM-54 to 6-PN/8-PN treatment
Method: as §3
(§6) The cells were seeded in triplicates in 96-well plates at a density of 2,500 cells per well in 50 μl medium (5×10^4 cells per milliliter). […] Plates were incubated at 37° C. for 1 hour and measured in a Fluoroskan II (Lab Systems, Helsinki, Finland) with a […]. The intensity of fluorescence indicates the number of viable cells in the wells. […]

SK-MEL-28 melanoma cells [7] = experiment: MUH proliferation assay, SK-MEL-28; format: cell-based, human; settings: SK-MEL-28, addition of 5 μM IM-54 to 6-PN/8-PN treatment
Method: as §3, §6

SMILES: CN[C@@H]1C[C@H]2O[C@@](C)([C@@H]1OC)n1c3ccccc3c3c4c(c5c6ccccc6n2c5c31)C(=O)NC4 [staurosporin, reference compound]
- annexin V positive (apoptotic) cells (BLM melanoma cells [1]; DMSO control 4.1%): 17.4%
- PI positive (nectrotic) cells (BLM melanoma cells [1]; DMSO control 9.1%): 16.6%
- annexin V positive (apoptotic) cells (SK-MEL-28 melanoma cells [2]; DMSO control 2.5%): 13.9%
- PI positive (nectrotic) cells (SK-MEL-28 melanoma cells [2]; DMSO control 7.9%): 9.3%

SMILES: O=C(CCCCCCC(=O)Nc1ccccc1)NO [SAHA, suberoyl anilide hydroxamic acid]
- fibroblast proliferation [3]: no reduced proliferation
- band for cleaved caspase-3 [4]: no additional band
- melanocyte proliferation [5]: no reduced proliferation

SMILES: CCCCCNC1=C(c2cn(C)c3ccccc23)C(=O)N(C)C1=O [IM-54]
- decrease of cell death rates at higher PN concentrations (BLM melanoma cells [6]): up to 35%
- decrease of cell death rates at higher PN concentrations (SK-MEL-28 melanoma cells [7]): up to 35%

SMILES: CC(/C=C/C(=O)NO)=C\[C@@H](C)C(=O)c1ccc(N(C)C)cc1 [TSA, trichostatin A]
- fibroblast proliferation [3]: no reduced proliferation
- band for cleaved caspase-3 [4]: no additional band
- melanocyte proliferation [5]: no reduced proliferation
